The values below come from patent publication US20210403606A1, “METHOD FOR SEPARATING AND PURIFYING POLYSACCHARIDES FROM GANODERMA SPORES” (ZHONGKE HEALTH INDUSTRY GROUP JIANGSU PHARMACEUTICAL CO., …, priority 2018, published 2021).

For one data set, the system named is transplanted tumor Heps. Nature of the data set: Inhibitory effects on the transplanted tumor Heps in mice by tail vein injection. The data set is classed as in vivo, ICR mice. Here is the method: (§1) 1.2. Animals: ICR mice, 18-22 g, half males and half females, provided by the Animal Laboratory of China Pharmaceutical University. The animals were fed with pellet feed in an air-conditioned room at a temperature of 18-24° C., and a relative humidity of 70%.
3.1. Inhibitory effects of No. 1, No. 2, and No. 3 on the transplanted tumor Heps in mice by tail vein injection
3.1.1. Route of administration: No. 1, No. 2, and No. 3 are administrated by tail vein injection (iv).
3.1.2. Schedule of administration: the mice are inoculated with solid-type Heps tumors according to protocols of transplanted tumor research, and 24 hours after inoculation, the medicines are intravenously administered once every other day for a total of 4 doses. On the day after stopping administration, the mice are sacrificed and dissected.
3.1.3. Dose setting: There are 6 groups in total, namely:
3.1.4. Volume of administration: 0.4 ml/20 g
(§2) 3.1.5. Test method: 60 mice of the foregoing specification were inoculated with solid-type Heps tumors according to protocols of the transplanted tumor research. The mice were weighed 24 hours after inoculation, and randomly divided into 6 groups, each with 10 mice, having half males and half females. The blank control group and the CTX group were respectively used as a negative control group and a positive control group. 24 hours after inoculation, the medicines were intravenously administered once every other day for a total of 4 doses. The mice were weighed on the day after stopping administration. The tumor-bearing mice were sacrificed, and the tumor masses were separated and weighed, and the obtained data was statistically processed (t-test).

Another data set concerns transplanted tumor S180. Nature of the data set: Inhibitory effects on the transplanted tumor S180 in mice by tail vein injection. The class given is in vivo, ICR mice. Here is the method:
as §1
3.2. Inhibitory effects of No. 1, No. 2, and No. 3 on the transplanted tumor S180 in mice by tail vein injection
3.2.1. Route of administration: No. 1, No. 2, and No. 3 are administrated by tail vein injection (iv).
3.2.2. Schedule of administration: the mice are inoculated with solid-type 5180 tumors according to protocols of transplanted tumor research, and 24 hours after inoculation, the medicines are intravenously administered once every other day for a total of 4 doses. On the day after stopping administration, the mice are sacrificed and dissected.
3.2.3. Dose setting: There are 6 groups in total, namely:
3.2.4. Volume of administration: 0.4 ml/20 g
as §2, with “3.2.5.” for “3.1.5.”, “5180” for “Heps”

With `O=P1(N(CCCl)CCCl)NCCCO1` (centres unmarked) [CTX, Cyclophosphamide], the Tumor inhibition rate with transplanted tumor Heps (Heps, 30 mg/kg once every other day, 4 doses) was 74.20%; in the data set with transplanted tumor S180 (S180, 30 mg/kg once every other day, 4 doses), 65.71%. The Tumor weight is reported as 0.42 ± 0.19 g with transplanted tumor Heps (Heps, 30 mg/kg once every other day, 4 doses, X ± SD, n = 10) and 0.55 ± 0.18 g in the data set with transplanted tumor S180 (S180, 30 mg/kg once every other day, 4 doses, X ± SD, n = 10). The “Weight After administration” value is 23.2 ± 2.74 in the data set with transplanted tumor Heps (Heps-bearing mice, 30 mg/kg once every other day, 4 doses, X ± SD, n = 10) and 23.2 ± 2.74 with transplanted tumor S180 (S180-bearing mice, 30 mg/kg once every other day, 4 doses, X ± SD, n = 10). The “Weight Before administration” value in the data set with transplanted tumor Heps (Heps-bearing mice, 30 mg/kg, baseline body weight, X ± SD, n = 10) was determined as 20.0 ± 1.36; in the data set on transplanted tumor S180 (S180-bearing mice, 30 mg/kg, baseline body weight, X ± SD, n = 10), 20.1 ± 1.28.
